The values that follow come from US6977082B2, “High efficacy antibacterial compositions having enhanced esthetic and skin care properties” (The Dial Corporation, priority 2001, dated 2005).

A short description of the data set: Repeat Application Soap Chamber (irritation) Test. The following applies: occlusive patches on volar forearm, six days, dilute solutions.

Molecules are shown by their SMILES.

Description: Twelve male and female subjects between the ages of 18 and 65, who were in good health, were enrolled in the test. Dilute solutions of all test compositions were made each day of patching. Patches were totally occlusive chambers, 12 mm in diameter, applied to the volar forearm for a total of six days. Expert visual gradings, using a four-point scale for erythema, scaling, and fissuring were used as the objective measure of observation for this study. Grading was performed at baseline (i.e., when panelists were enrolled), 30 minutes after patch removal on days one to six, and at 24 hours on days one to six. A maximum for each tested characteristic was established as a “3” score.

For the compound `CCCCCCCCCCCCOS(=O)(=O)[O-].[Na+]` [SLS, sodium lauryl sulfate], the “irritation potential, ranking from highest to lowest” value is listed as “SLS>HCPHW-E>HCPHW-H>HCPHW-G>HCPHW-F>Composition A>Negative Control”.
